Ends that are not written are not given here.
Experiments:
A. baumannii ATCC 19606 = settings: ATCC 19606, 24 h
E. coli ATCC 11775 = settings: ATCC 11775, 24 h
E. coli AIC221 = settings: AIC221, 24 h
[1] = system: E. faecium ATCC 700221 - VRE; settings: ATCC 700221, 24 h
HEK293T cells = settings: for CC50 vs HEK293T cells (source data of Figure 4a): 24 h
human red blood cells = settings: pH 7.4
P. aeruginosa PAO1 = settings: PAO1, 24 h
P. aeruginosa PA14 = settings: PA14, 24 h

Sequence	Minimal Inhibitory Concentration, A. baumannii ATCC 19606 (-) (A. baumannii ATCC 19606) [µmol/L]	Minimal Inhibitory Concentration, E. coli ATCC 11775 (-) (E. coli ATCC 11775) [µmol/L]	Minimal Inhibitory Concentration, E. coli AIC221 (-) (E. coli AIC221) [µmol/L]	Minimal Inhibitory Concentration, E. faecium ATCC 700221 - VRE (+) [1] [µmol/L]	SIcytotoxicity (HEK293T cells)	CC50 vs HEK293T cells (source data of Figure 4a) (HEK293T cells) [µmol/L]	HC50 (human red blood cells)	Minimal Inhibitory Concentration, P. aeruginosa PAO1 (-) (P. aeruginosa PAO1) [µmol/L]	Minimal Inhibitory Concentration, P. aeruginosa PA14 (-) (P. aeruginosa PA14) [µmol/L]
KWLGKLGVILSHL [UniprotKB-15]	64	32	32	64	1.4	45.97	1.374e+045		
LRAKMLNSKFIKL [Conoserver-5]							1.085e+083		
LTKWLGKLGVIL [UniprotKB-11]					4.4		146.7		
PLWKRRRFLSMLKARAKR [Conoserver-4]				32	2.6		707.7	64	
QPRRVKRFKKFFKKLKNSVKKRAKKF [ISOB-7]			64	32	4.0		569.0	64	
RFGSFLKKVWKSKLAKKL [UniprotKB-20]	64	32	16	8	6.6	52.53	18147.0	8	16
RHRIVRTYIAKFGLK [ISOB-2]			64	32	7.5		1.085e+083		
RKFKWGKLFSTAKKLYKKGKKLSK [UniprotKB-16]	32	8	4	32	5.9	23.72	2082.0	4	4
RKRRRFISMLKARAKRR [Conoserver-15]				32	0.7	22.52	1.085e+083		
RLRAKMRNSKLFKLTKR [Conoserver-10]							1.085e+083		
RQEYPTKRLRAKMLNSKFIKLIKR [Conoserver-12]			32	16	5.8		1.085e+083		
RRASPLWKRRRFLSMLKARAKRTGYK [Conoserver-3]			64	32	6.0		459.2	64	
RRVKRFKKFFKKL [ISOB-6]				32	6.5		1.085e+083	32	64
RRVKRFKKFFMKL [UniprotKB-18]			64	32	3.1		1.827e+053	32	
SFKKILSAGKKLFKKAKKL [Arachnoserver-29]		16	4	16	4.3	17.1	1.085e+083	16	16

Source: PMC12254355 (Nature Communications, 2025)
